Test results: patent US20240262832A1, “SMALL MOLECULE MODULATORS OF GLUCOCEREBROSIDASE ACTIVITY AND USES THEREOF” (Vanqua Bio, Inc., priority 2021, published 2024)

Target: T1, GCase (Homo sapiens, UniProt P04062)
T1 construct: endogenous in cells; host or cells: HeLa cells
T1 sequence (P04062 40-536): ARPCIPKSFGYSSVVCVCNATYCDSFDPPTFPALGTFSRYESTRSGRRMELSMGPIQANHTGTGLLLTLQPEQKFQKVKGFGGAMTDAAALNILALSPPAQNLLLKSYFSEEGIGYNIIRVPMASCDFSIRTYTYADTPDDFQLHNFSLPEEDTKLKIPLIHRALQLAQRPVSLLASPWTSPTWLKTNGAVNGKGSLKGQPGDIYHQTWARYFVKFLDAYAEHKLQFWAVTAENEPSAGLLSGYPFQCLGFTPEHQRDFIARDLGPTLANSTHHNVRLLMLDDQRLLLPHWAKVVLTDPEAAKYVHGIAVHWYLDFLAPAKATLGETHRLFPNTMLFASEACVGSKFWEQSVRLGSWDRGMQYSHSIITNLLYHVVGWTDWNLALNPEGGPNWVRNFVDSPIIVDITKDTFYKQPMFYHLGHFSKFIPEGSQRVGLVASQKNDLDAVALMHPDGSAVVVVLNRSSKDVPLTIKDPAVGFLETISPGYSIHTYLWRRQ
Test: activation of GCase in a live cell PFB assay in HELA cells
Type: cell-based

Compound | EC50 [µM]
CCn1c(-c2nncs2)nc2ncc(N3CCCC(COc4ccccc4C)C3)nc21 (stereo not shown) [Compound 30, 2-(1-Ethyl-6-(3-((o-tolyloxy)methyl)piperidin-1-yl)-1H-imidazo[4,5-b]pyrazin-2-yl)-1,3,4-thiadiazole] | > 100
FC(F)Cn1ncc2ncc(N3CCCC(F)(COc4cccnc4C(F)(F)F)C3)nc21 (stereo not shown) [Compound 35, 3-({1-[1-(2,2-Difluoroethyl)-1H-pyrazolo[3,4-b]pyrazin-6-yl]-3-fluoropiperidin-3-yl}methoxy)-2-(trifluoromethyl)pyridine] | 10 to 50
FC(F)Cn1ncc2ncc(N3C[C@@H]4[C@@H](COc5cccc(C(F)(F)F)n5)[C@@H]4C3)nc21 [Compound 36, (1R,5S,6S)-3-[1-(2,2-Difluoroethyl)-1H-pyrazolo[3,4-b]pyrazin-6-yl]-6-({[6-(trifluoromethyl)pyridin-2-yl]oxy}methyl)-3-azabicyclo[3.1.0]hexane] | 10 to 50
Cc1ccccc1OCC1CCCN(C(=O)c2cn(C)c3ccn(-c4ccccc4)c(=O)c23)C1 (stereo not shown) [Compound 38, 1-Methyl-5-phenyl-3-(3-((o-tolyloxy)methyl)piperidine-1-carbonyl)-1,5-dihydro-4H-pyrrolo[3,2-c]pyridin-4-one] | 10 to 50
FC(F)(F)c1ncccc1OC[C@@H]1[C@H]2CN(c3cncc(-c4nncs4)n3)C[C@@H]12 [Compound 40, (1R,5S,6S)-3-[6-(1,3,4-Thiadiazol-2-yl)pyrazin-2-yl]-6-({[2-(trifluoromethyl)pyridin-3-yl]oxy}methyl)-3-azabicyclo[3.1.0]hexane] | 10 to 50
CC(=O)N1CCC(c2cc3nc(N4CCCC(COc5ccccc5)C4)cnc3n2C)CC1 (stereo not shown) [Compound 41, 1-(4-{5-Methyl-2-[3-(phenoxymethyl)piperidin-1-yl]-5H-pyrrolo[2,3-b]pyrazin-6-yl}piperidin-1-yl)ethan-1-one] | > 100
FC(F)Cn1ncc2ncc(N3CCC(F)(F)C(COc4cccc(C(F)(F)F)n4)C3)nc21 (stereo not shown) [Compound 42, 2-({1-[1-(2,2-Difluoroethyl)-1H-pyrazolo[3,4-b]pyrazin-6-yl]-4,4-difluoropiperidin-3-yl}methoxy)-6-(trifluoromethyl)pyridine] | 10 to 50
FC(F)Cn1ncc2ncc(N3CCCC(F)(COc4cccc(C(F)(F)F)n4)C3)nc21 (stereo not shown) [Compound 43, 2-({1-[1-(2,2-Difluoroethyl)-1H-pyrazolo[3,4-b]pyrazin-6-yl]-3-fluoropiperidin-3-yl}methoxy)-6-(trifluoromethyl)pyridine] | 10 to 50
O=C(Cc1ccnn(-c2ccccc2)c1=O)N1CCCC(COc2ccccc2)C1 (stereo not shown) [Compound 44, 4-(2-Oxo-2-(3-(phenoxymethyl)piperidin-1-yl)ethyl)-2-phenylpyridazin-3(2H)-one] | > 100
O=C(N1CCCC(COc2ccccc2)C1)C1(c2nnc(-c3ccccc3)o2)CCOCC1 (stereo not shown) [Compound 46, (3-(Phenoxymethyl)piperidin-1-yl)(4-(5-phenyl-1,3,4-oxadiazol-2-yl)tetrahydro-2H-pyran-4-yl)methanone] | 10 to 50
C[C@@H]1CCN(c2cnc3cnn(CC(F)F)c3n2)C[C@@H]1COc1cccnc1C(F)(F)F [Compound 48a, 1-(2,2-Difluoroethyl)-6-((3R,4R)-4-methyl-3-(((2-(trifluoromethyl)pyridin-3-yl)oxy)methyl)piperidin-1-yl)-1H-pyrazolo[3,4-b]pyrazine] | > 100
C[C@H]1CCN(c2cnc3cnn(CC(F)F)c3n2)C[C@H]1COc1cccnc1C(F)(F)F [Compound 48b, 1-(2,2-difluoroethyl)-6-((3S,4S)-4-methyl-3-(((2-(trifluoromethyl)pyridin-3-yl)oxy)methyl)piperidin-1-yl)-1H-pyrazolo[3,4-b]pyrazine] | > 100
C[C@H]1CCN(c2cnc3cnn(CC(F)F)c3n2)C[C@@H]1COc1cccnc1C(F)(F)F [Compound 48c, 1-(2,2-difluoroethyl)-6-((3R,4S)-4-methyl-3-(((2-(trifluoromethyl)pyridin-3-yl)oxy)methyl)piperidin-1-yl)-1H-pyrazolo[3,4-b]pyrazine] | 10 to 50
C[C@@H]1CCN(c2cnc3cnn(CC(F)F)c3n2)C[C@H]1COc1cccnc1C(F)(F)F [Compound 48d, 1-(2,2-difluoroethyl)-6-((3S,4R)-4-methyl-3-(((2-(trifluoromethyl)pyridin-3-yl)oxy)methyl)piperidin-1-yl)-1H-pyrazolo[3,4-b]pyrazine] | 10 to 50
Cc1ccccc1OCC1CCCN(C(=O)c2cnc3cc(-c4ccccc4)n(C)c3n2)C1 (stereo not shown) [Compound 49, (5-methyl-6-phenyl-5H-pyrrolo[2,3-b]pyrazin-3-yl)(3-((o-tolyloxy)methyl)piperidin-1-yl)methanone] | 10 to 50
Cn1c(-c2ccccc2)cc2ncc(C(=O)N3CCCC(COc4cccnc4C(F)(F)F)C3)nc21 (stereo not shown) [Compound 50, (5-Methyl-6-phenyl-5H-pyrrolo[2,3-b]pyrazin-3-yl)(3-(((2-(trifluoromethyl)pyridin-3-yl)oxy)methyl)piperidin-1-yl)methanone] | 10 to 50
O=C(c1nnc(C(F)(F)c2ccccc2)o1)N1CCCC(COc2ccccc2)C1 (stereo not shown) [Compound 51, (5-(Difluoro(phenyl)methyl)-1,3,4-oxadiazol-2-yl)(3-(phenoxymethyl)piperidin-1-yl)methanone] | > 100
Cc1ccccc1OCC1CCCN(C(=O)c2cnc3c(cc(-c4ccccc4)n3C)n2)C1 (stereo not shown) [Compound 52, (5-methyl-6-phenyl-5H-pyrrolo[2,3-b]pyrazin-2-yl)(3-((o-tolyloxy)methyl)piperidin-1-yl)methanone] | 10 to 50

Results, then the molecule that gave them:

EC50 [µM] | Compound
< 10 | FC(F)Cn1ncc2ncc(N3CCC(F)(F)C(COc4cccnc4C(F)(F)F)C3)nc21 (stereo not shown) [Compound 20, 3-({1-[1-(2,2-difluoroethyl)-1H-pyrazolo[3,4-b]pyrazin-6-yl]-4,4-difluoropiperidin-3-yl}methoxy)-2-(trifluoromethyl)pyridine]
10 to 50 | FC(F)Cn1ncc2ncc(N3CC(COc4cccnc4C(F)(F)F)CC(F)(F)C3)nc21 (stereo not shown) [Compound 21, 3-({1-[1-(2,2-difluoroethyl)-1H-pyrazolo[3,4-b]pyrazin-6-yl]-5,5-difluoropiperidin-3-yl}methoxy)-2-(trifluoromethyl)pyridine]
10 to 50 | O=C(c1cnn(-c2ccccc2F)n1)N1CCCC(COc2ccccc2)C1 (stereo not shown) [Compound 22, (2-(2-Fluorophenyl)-2H-1,2,3-triazol-4-yl)(3-(phenoxymethyl)piperidin-1-yl)methanone]
10 to 50 | Cc1ccccc1OCC1CCCN(c2cnc3cnn(-c4nncs4)c3n2)C1 (stereo not shown) [Compound 23, 2-(6-(3-((o-Tolyloxy)methyl)piperidin-1-yl)-1H-pyrazolo[3,4-b]pyrazin-1-yl)-1,3,4-thiadiazole]
10 to 50 | CC(C)(c1ccccc1)c1nnc(C(=O)N2CCCC(COc3ccccc3)C2)o1 (stereo not shown) [Compound 24, (3-(Phenoxymethyl)piperidin-1-yl)(5-(2-phenylpropan-2-yl)-1,3,4-oxadiazol-2-yl)methanone]
10 to 50 | Cc1ccccc1OCC1CCCN(C(=O)c2cnn3c(-c4ccccc4)ccc(Cl)c23)C1 (stereo not shown) [Compound 25, (4-Chloro-7-phenylpyrazolo[1,5-a]pyridin-3-yl)(3-((o-tolyloxy)methyl)piperidin-1-yl)methanone]
< 10 | CC(Oc1cccnc1C(F)(F)F)C1CCCN(c2cnc3cnn(CC(F)F)c3n2)C1 (stereo not shown) [Compound 26, 1-(2,2-Difluoroethyl)-6-(3-(1-((2-(trifluoromethyl)pyridin-3-yl)oxy)ethyl)piperidin-1-yl)-1H-pyrazolo[3,4-b]pyrazine]
< 10 | CC1CCC(COc2cccnc2C(F)(F)F)CN1c1cnc2cnn(CC(F)F)c2n1 (stereo not shown) [Compound 31, 1-(2,2-Difluoroethyl)-6-(2-methyl-5-(((2-(trifluoromethyl)pyridin-3-yl)oxy)methyl)piperidin-1-yl)-1H-pyrazolo[3,4-b]pyrazine]
10 to 50 | Cn1c(-c2ccccc2)cc2ncc(N3CCCC(COc4cccnc4C(F)(F)F)C3)nc21 (stereo not shown) [Compound 33, 5-Methyl-6-phenyl-3-(3-(((2-(trifluoromethyl)pyridin-3-yl)oxy)methyl)piperidin-1-yl)-5H-pyrrolo[2,3-b]pyrazine]
< 10 | C[C@H](Oc1cccnc1C(F)(F)F)[C@H]1CCCN(c2cncc(-c3nncs3)n2)C1 [Compound 45a, 2-(6-((S)-3-((S)-1-((2-(Trifluoromethyl)pyridin-3-yl)oxy)ethyl)piperidin-1-yl)pyrazin-2-yl)-1,3,4-thiadiazole]
< 10 | C[C@@H](Oc1cccnc1C(F)(F)F)[C@H]1CCCN(c2cncc(-c3nncs3)n2)C1 [Compound 45b, 2-(6-((S)-3-((R)-1-((2-(trifluoromethyl)pyridin-3-yl)oxy)ethyl)piperidin-1-yl)pyrazin-2-yl)-1,3,4-thiadiazole]
< 10 | C[C@@H]1C[C@H](COc2cccnc2C(F)(F)F)CN(c2cnc3cnn(CC(F)F)c3n2)C1 [Compound 47a, 1-(2,2-Difluoroethyl)-6-((3R,5S)-3-methyl-5-(((2-(trifluoromethyl)pyridin-3-yl)oxy)methyl)piperidin-1-yl)-1H-pyrazolo[3,4-b]pyrazine]
< 10 | CC1CCN(c2cnc3cnn(CC(F)F)c3n2)CC1COc1cccnc1C(F)(F)F (stereo not shown) [Compound 48, 1-(2,2-Difluoroethyl)-6-(4-methyl-3-(((2-(trifluoromethyl)pyridin-3-yl)oxy)methyl)piperidin-1-yl)-1H-pyrazolo[3,4-b]pyrazine]
